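Each compound was tested at five concentrations against cells in 96-well plates for 48 hours. GI50 is the concentration that inhibits growth by half.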 The source made the active and inactive calls. No stated cut-off is given here; in the data, active = GI50 up to about 1.1 µM and inactive = higher.
Experiments:
Assay in all cases: DTP human tumour cell line panel, 48 h
[1] = tested on: SW-620
[2] = tested on: EKVX
[3] = tested on: MDA-N
[4] = tested on: BT-549
[5] = tested on: RPMI-8226
[6] = tested on: ACHN
[7] = tested on: SK-OV-3
[8] = tested on: U-251
[9] = tested on: SF-268
[10] = tested on: NCI/ADR-RES
[11] = tested on: LOX IMVI
[12] = tested on: A498
[13] = tested on: NCI-H226
[14] = tested on: OVCAR-8
[15] = tested on: UACC-62
[16] = tested on: IGROV-1
[17] = tested on: MDA-MB-231
[18] = tested on: CCRF-CEM
[19] = tested on: NCI-H23
[20] = tested on: 786-0
[21] = tested on: HT-29
[22] = tested on: SNB-75
[23] = tested on: OVCAR-5
[24] = tested on: HCT-15
[25] = tested on: UACC-257
[26] = tested on: Malme-3M
[27] = tested on: DU-145
[28] = tested on: OVCAR-4
[29] = tested on: SF-539
[30] = tested on: HOP-92
[31] = tested on: SR
[32] = tested on: Hs-578T
[33] = tested on: A549
[34] = tested on: HCT-116
[35] = tested on: SN12C
[36] = tested on: SK-MEL-5
[37] = tested on: KM12
[38] = tested on: M14
[39] = tested on: NCI-H522
[40] = tested on: HL-60
[41] = tested on: UO-31
[42] = tested on: SNB-19
[43] = tested on: SF-295
[44] = tested on: HCC 2998
[45] = tested on: T47D
[46] = tested on: PC-3
[47] = tested on: K562
[48] = tested on: CAKI-1
[49] = tested on: MDA-MB-435
[50] = tested on: MCF7
[51] = tested on: RXF 393
[52] = tested on: MOLT-4
[53] = tested on: SK-MEL-28
[54] = tested on: TK-10
[55] = tested on: OVCAR-3
[56] = tested on: NCI-H460
[57] = tested on: COLO 205
[58] = tested on: HOP-62
[59] = tested on: SK-MEL-2

Measured: GI50

O=C(N/N=C\C=C\c1ccc([N+](=O)[O-])o1)C(=O)N/N=C\C=C\c1ccc([N+](=O)[O-])o1
81.7 µM: [24]
inactive: [1] 24.5 µM | [2] > 100 µM | [3] > 100 µM | [4] > 100 µM | [5] 28.4 µM | [6] > 100 µM | [7] > 100 µM | [8] > 100 µM | [9] > 100 µM | [10] 26 µM | [11] 4.94 µM | [12] > 100 µM | [13] > 100 µM | [14] 23.2 µM | [15] > 100 µM | [16] 78.2 µM | [17] > 100 µM | [18] 1.36 µM | [19] > 100 µM | [20] > 100 µM | [21] > 100 µM | [22] > 100 µM | [23] > 100 µM | [25] > 100 µM | [26] > 100 µM | [27] > 100 µM | [28] 34.9 µM | [29] 3.19 µM | [30] > 100 µM | [31] 35.5 µM | [32] > 100 µM | [33] > 100 µM | [34] 25.1 µM | [35] > 100 µM | [36] > 100 µM | [37] > 100 µM | [38] 32.1 µM | [39] > 100 µM | [40] 20 µM | [41] > 100 µM | [42] > 100 µM | [43] > 100 µM | [44] > 100 µM | [45] 36.2 µM | [46] > 100 µM | [47] > 100 µM | [48] > 100 µM | [49] > 100 µM | [50] 44.1 µM | [51] > 100 µM | [52] 24.1 µM | [53] > 100 µM | [54] 56.9 µM | [55] 24.1 µM | [56] > 100 µM | [57] > 100 µM | [58] 82.2 µM | [59] > 100 µM

NC(CSS(=O)(=O)c1ccccc1)C(=O)O (stereo unspecified)
> 10 µM: [24]
inactive: [1] > 10 µM | [2] > 10 µM | [3] > 10 µM | [4] > 10 µM | [5] > 10 µM | [6] > 10 µM | [7] > 10 µM | [8] > 10 µM | [9] > 10 µM | [10] > 10 µM | [11] > 10 µM | [12] > 10 µM | [13] > 10 µM | [14] > 10 µM | [15] > 10 µM | [16] > 10 µM | [17] > 10 µM | [18] > 10 µM | [19] > 10 µM | [20] > 10 µM | [21] > 10 µM | [22] > 10 µM | [23] > 10 µM | [25] > 10 µM | [26] > 10 µM | [27] > 10 µM | [28] > 10 µM | [29] > 10 µM | [30] > 10 µM | [31] > 10 µM | [32] > 10 µM | [33] > 10 µM | [34] > 10 µM | [35] > 10 µM | [36] > 10 µM | [37] > 10 µM | [38] > 10 µM | [39] > 10 µM | [40] > 10 µM | [41] > 10 µM | [42] > 10 µM | [43] > 10 µM | [44] > 10 µM | [45] > 10 µM | [46] > 10 µM | [47] > 10 µM | [48] > 10 µM | [49] > 10 µM | [50] > 10 µM | [51] > 10 µM | [52] > 10 µM | [53] > 10 µM | [54] > 10 µM | [55] > 10 µM | [56] > 10 µM | [57] > 10 µM | [58] > 10 µM | [59] > 10 µM

CCOC(=O)/C1=C(\C)N(Cc2ccccc2)C(=O)c2ccccc2C(=O)c2c(O)ccc(O)c21
inactive: [1] > 100 µM | [2] 80.7 µM | [3] > 100 µM | [5] 66.7 µM | [6] > 100 µM | [7] > 100 µM | [8] > 100 µM | [9] > 100 µM | [10] > 100 µM | [11] > 100 µM | [12] > 100 µM | [13] > 100 µM | [14] > 100 µM | [15] > 100 µM | [16] 34.7 µM | [17] > 100 µM | [18] > 100 µM | [19] > 100 µM | [20] > 100 µM | [21] > 100 µM | [22] > 100 µM | [23] > 100 µM | [25] > 100 µM | [26] > 100 µM | [27] > 100 µM | [28] > 100 µM | [29] > 100 µM | [30] 48.4 µM | [31] > 100 µM | [32] > 100 µM | [33] > 100 µM | [34] > 100 µM | [35] > 100 µM | [36] > 100 µM | [37] > 100 µM | [38] > 100 µM | [39] 24.1 µM | [40] > 100 µM | [41] > 100 µM | [42] > 100 µM | [43] > 100 µM | [44] > 100 µM | [45] > 100 µM | [46] > 100 µM | [47] > 100 µM | [48] > 100 µM | [49] > 100 µM | [51] 17.5 µM | [52] > 100 µM | [53] > 100 µM | [54] > 100 µM | [55] > 100 µM | [56] > 100 µM | [57] > 100 µM | [58] > 100 µM | [59] > 100 µM
> 100 µM: [24]
active: [4] < 0.01 µM | [50] < 0.01 µM

BC(=O)NC(CC(C)C)C(=O)NCC(=O)NC1c2ccsc2C(=O)C1O.CN(C)C (stereo unspecified)
> 100 µM: [24]
inactive: [1] > 100 µM | [2] > 100 µM | [3] > 100 µM | [4] > 100 µM | [5] > 100 µM | [6] > 100 µM | [7] > 100 µM | [8] > 100 µM | [9] > 100 µM | [10] > 100 µM | [11] > 100 µM | [12] > 100 µM | [13] 95.5 µM | [14] > 100 µM | [15] > 100 µM | [16] > 100 µM | [17] > 100 µM | [18] 31.6 µM | [19] > 100 µM | [20] > 100 µM | [21] > 100 µM | [22] > 100 µM | [23] > 100 µM | [25] > 100 µM | [26] > 100 µM | [27] > 100 µM | [28] > 100 µM | [29] > 100 µM | [30] > 100 µM | [31] > 100 µM | [32] > 100 µM | [33] > 100 µM | [34] > 100 µM | [35] > 100 µM | [36] > 100 µM | [37] > 100 µM | [38] > 100 µM | [39] > 100 µM | [40] > 100 µM | [41] > 100 µM | [42] > 100 µM | [43] > 100 µM | [44] > 100 µM | [45] > 100 µM | [46] > 100 µM | [47] 31.6 µM | [48] > 100 µM | [49] > 100 µM | [50] 2.37 µM | [51] > 100 µM | [52] > 100 µM | [53] > 100 µM | [54] > 100 µM | [55] > 100 µM | [56] 31.6 µM | [57] > 100 µM | [58] > 100 µM | [59] > 100 µM

— ChEMBL document CHEMBL1201862, “PubChem BioAssay data set” (2004)
